Test results from PubChem BioAssay (NCI).
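The compound was tested at five concentrations on cells cultured in 96-well plates, with a 48-hour exposure period. GI50: concentration for 50% inhibition of growth. TGI denotes the concentration required for complete inhibition of growth.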

Columns and labels:
Assay in all cases: NCI-60 cell line screen, 48 h
786-0 renal = system: 786-0 renal
A498 renal = system: A498 renal
A549 NSCLC = system: A549 NSCLC
ACHN renal = system: ACHN renal
BT-549 breast = system: BT-549 breast
CAKI-1 renal = system: CAKI-1 renal
CCRF-CEM leukemia = system: CCRF-CEM leukemia
COLO 205 colon = system: COLO 205 colon
DU-145 prostate = system: DU-145 prostate
EKVX NSCLC = system: EKVX NSCLC
HCC-2998 colon = system: HCC-2998 colon
HCT-116 colon = system: HCT-116 colon
HCT-15 colon = system: HCT-15 colon
HL-60(TB) leukemia = system: HL-60(TB) leukemia
HOP-62 NSCLC = system: HOP-62 NSCLC
HOP-92 NSCLC = system: HOP-92 NSCLC
HS 578T breast = system: HS 578T breast
HT29 colon = system: HT29 colon
IGROV1 ovarian = system: IGROV1 ovarian
K-562 leukemia = system: K-562 leukemia
KM12 colon = system: KM12 colon
LOX IMVI melanoma = system: LOX IMVI melanoma
M14 melanoma = system: M14 melanoma
MALME-3M melanoma = system: MALME-3M melanoma
MCF7 breast = system: MCF7 breast
MDA-MB-231 breast = system: MDA-MB-231 breast
MDA-MB-435 = system: MDA-MB-435
MDA-MB-468 breast = system: MDA-MB-468 breast
MOLT-4 leukemia = system: MOLT-4 leukemia
NCI-H226 lung = system: NCI-H226 lung
NCI-H23 lung = system: NCI-H23 lung
NCI-H460 lung = system: NCI-H460 lung
NCI-H522 lung = system: NCI-H522 lung
NCI/ADR-RES ovarian = system: NCI/ADR-RES ovarian
OVCAR-3 ovarian = system: OVCAR-3 ovarian
OVCAR-4 ovarian = system: OVCAR-4 ovarian
OVCAR-5 ovarian = system: OVCAR-5 ovarian
OVCAR-8 ovarian = system: OVCAR-8 ovarian
PC-3 prostate = system: PC-3 prostate
RPMI-8226 leukemia = system: RPMI-8226 leukemia
RXF 393 renal = system: RXF 393 renal
SF-268 CNS = system: SF-268 CNS
SF-295 CNS = system: SF-295 CNS
SF-539 CNS = system: SF-539 CNS
SK-MEL-2 melanoma = system: SK-MEL-2 melanoma
SK-MEL-28 melanoma = system: SK-MEL-28 melanoma
SK-MEL-5 melanoma = system: SK-MEL-5 melanoma
SK-OV-3 ovarian = system: SK-OV-3 ovarian
SN12C renal = system: SN12C renal
SNB-19 CNS = system: SNB-19 CNS
SNB-75 CNS = system: SNB-75 CNS
SR leukemia = system: SR leukemia
SW-620 colon = system: SW-620 colon
T-47D breast = system: T-47D breast
TK-10 renal = system: TK-10 renal
U251 CNS = system: U251 CNS
UACC-257 melanoma = system: UACC-257 melanoma
UACC-62 melanoma = system: UACC-62 melanoma
UO-31 renal = system: UO-31 renal

## CC/C(=C(\c1ccc(O)cc1)c1ccc(OCCN(C)C(=O)COCCNC(=O)Cc2ccc3c(c2)CN([C@@H]2CCC(=O)NC2=O)C3=O)cc1)c1ccccc1
786-0 renal
  GI50: 51.7 µM
  TGI: > 100 µM
A498 renal
  GI50: 38.6 µM
  TGI: > 100 µM
A549 NSCLC
  GI50: 46.2 µM
  TGI: > 100 µM
ACHN renal
  GI50: > 100 µM
  TGI: > 100 µM
BT-549 breast
  GI50: 0.15 µM
  TGI: 0.743 µM
CAKI-1 renal
  GI50: 55.1 µM
  TGI: > 100 µM
CCRF-CEM leukemia
  GI50: 0.995 µM
COLO 205 colon
  GI50: 2.11 µM
  TGI: 33.3 µM
DU-145 prostate
  GI50: > 100 µM
  TGI: > 100 µM
EKVX NSCLC
  GI50: > 47 µM
  TGI: > 100 µM
HCC-2998 colon
  GI50: 1.7 µM
  TGI: > 82.3 µM
HCT-116 colon
  GI50: > 85.7 µM
  TGI: > 100 µM
HCT-15 colon
  GI50: > 88.1 µM
  TGI: > 100 µM
HL-60(TB) leukemia
  GI50: 0.0309 µM
  TGI: 0.659 µM
HOP-62 NSCLC
  GI50: 2.28 µM
  TGI: 19.1 µM
HOP-92 NSCLC
  GI50: 0.177 µM
  TGI: 3.05 µM
HS 578T breast
  GI50: 0.672 µM
  TGI: 11.8 µM
HT29 colon
  GI50: > 57.6 µM
  TGI: > 100 µM
IGROV1 ovarian
  GI50: 0.433 µM
  TGI: > 100 µM
K-562 leukemia
  GI50: 16 µM
  TGI: > 100 µM
KM12 colon
  GI50: 8.5 µM
  TGI: > 100 µM
LOX IMVI melanoma
  GI50: > 84.5 µM
  TGI: > 100 µM
M14 melanoma
  GI50: 30.8 µM
  TGI: > 100 µM
MALME-3M melanoma
  GI50: 0.306 µM
  TGI: 2.49 µM
MCF7 breast
  GI50: 0.104 µM
  TGI: > 100 µM
MDA-MB-231 breast
  GI50: 0.142 µM
  TGI: 0.801 µM
MDA-MB-435
  GI50: 17.8 µM
  TGI: > 100 µM
MDA-MB-468 breast
  GI50: 0.0374 µM
  TGI: 0.266 µM
MOLT-4 leukemia
  GI50: 0.0517 µM
  TGI: 1.1 µM
NCI-H226 lung
  GI50: 2.35 µM
  TGI: > 26.7 µM
NCI-H23 lung
  GI50: > 93.6 µM
  TGI: > 100 µM
NCI-H460 lung
  GI50: > 100 µM
  TGI: > 100 µM
NCI-H522 lung
  GI50: > 21.6 µM
  TGI: > 100 µM
NCI/ADR-RES ovarian
  GI50: > 100 µM
  TGI: > 100 µM
OVCAR-3 ovarian
  GI50: 15.2 µM
  TGI: > 100 µM
OVCAR-4 ovarian
  GI50: 11.2 µM
  TGI: > 100 µM
OVCAR-5 ovarian
  GI50: > 57.6 µM
  TGI: > 100 µM
OVCAR-8 ovarian
  GI50: 1.56 µM
  TGI: 33.4 µM
PC-3 prostate
  GI50: 0.703 µM
  TGI: > 100 µM
RPMI-8226 leukemia
  GI50: 5.07 µM
  TGI: > 100 µM
RXF 393 renal
  GI50: 4.19 µM
  TGI: 72.8 µM
SF-268 CNS
  GI50: 5.38 µM
  TGI: > 100 µM
SF-295 CNS
  GI50: > 100 µM
  TGI: > 100 µM
SF-539 CNS
  GI50: > 62.6 µM
  TGI: > 100 µM
SK-MEL-2 melanoma
  GI50: 6.14 µM
  TGI: > 91.8 µM
SK-MEL-28 melanoma
  GI50: 21.6 µM
  TGI: > 100 µM
SK-MEL-5 melanoma
  GI50: 6.78 µM
  TGI: 73.9 µM
SK-OV-3 ovarian
  GI50: 10.7 µM
  TGI: > 100 µM
SN12C renal
  GI50: 2.27 µM
  TGI: > 93 µM
SNB-19 CNS
  GI50: 1.83 µM
  TGI: > 100 µM
SNB-75 CNS
  GI50: 0.316 µM
  TGI: > 94.8 µM
SR leukemia
  GI50: 13.5 µM
  TGI: > 74 µM
SW-620 colon
  GI50: 1.9 µM
  TGI: > 100 µM
T-47D breast
  GI50: 0.0259 µM
  TGI: 4.61 µM
TK-10 renal
  GI50: > 100 µM
  TGI: > 100 µM
U251 CNS
  GI50: > 74.9 µM
  TGI: > 100 µM
UACC-257 melanoma
  GI50: > 100 µM
  TGI: > 100 µM
UACC-62 melanoma
  GI50: 54.2 µM
  TGI: > 100 µM
UO-31 renal
  GI50: > 100 µM
  TGI: > 100 µM
